{
  "source": "patent US12673961B2",
  "about": "(Agios Pharmaceuticals, Inc., priority 2022, dated 2026)",
  "data": [
    {"molecular_target": "T1, human PAH with the R408W mutation (Homo sapiens, UniProt P00439, R408W)", "T1 construct": "expressed in transfected cells", "T1 sequence (P00439 1-452 R408W)": "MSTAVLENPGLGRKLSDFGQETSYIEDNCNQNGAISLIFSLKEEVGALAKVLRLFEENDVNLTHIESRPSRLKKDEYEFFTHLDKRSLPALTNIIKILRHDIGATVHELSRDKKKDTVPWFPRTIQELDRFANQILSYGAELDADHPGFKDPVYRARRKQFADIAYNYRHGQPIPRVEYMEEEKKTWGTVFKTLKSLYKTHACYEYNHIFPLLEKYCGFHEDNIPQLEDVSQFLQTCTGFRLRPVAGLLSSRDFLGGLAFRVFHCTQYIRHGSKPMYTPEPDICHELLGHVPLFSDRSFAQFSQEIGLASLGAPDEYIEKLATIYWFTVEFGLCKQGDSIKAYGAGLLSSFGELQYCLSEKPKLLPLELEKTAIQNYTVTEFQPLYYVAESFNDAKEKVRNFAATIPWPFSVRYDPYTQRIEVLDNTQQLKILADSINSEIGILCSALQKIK", "test": "Cell Based Phenylalanine Flux Assay;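 note: Ten-point dose curve from 2-fold serial dilutions, run in duplicate at 0.5% DMSO final, tracer step used 20 µM sepiapterin and 800 µM labeled phenylalanine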", "details": "A375 cells expressing human R408W PAH; 24 hrs with compound, then sepiapterin and 13C9,15N-Phenylalanine for 4 hours; 13C-Tyrosine by LC-MS; average where tested multiple times; read-out: AC50", "units": {"AC50": "µM"}, "values": [
      {"compound": "O=C(c1nnc(-c2cnn(C(F)(F)F)c2)o1)N1CCc2[nH]cnc2[C@H]1c1cc2cccc(C(F)F)n2n1", "note": "[Example 1502, (S)-(4-(7-(difluoromethyl)pyrazolo[1,5-a]pyridin-2-yl)-6,7-dihydro-1H-imidazo [4,5-c]pyridin-5(4H)-yl)(5-(1-(trifluoromethyl)-1H-pyrazol-4-yl)-1,3,4-oxadiazol-2-yl)methanone]", "AC50": "0.5 to 1"},
      {"compound": "O=C(c1nnc(-c2cnn(C(F)(F)F)c2)o1)N1CCc2[nH]cnc2[C@@H]1c1cc2c(Cl)cccn2n1", "note": "[Example 1505]", "AC50": "> 5"},
      {"compound": "O=C(c1nnc(-c2ccn(C(F)(F)F)n2)o1)N1CCc2[nH]cnc2[C@H]1c1cc2cccc(Cl)n2n1", "note": "[Example 1508, (S)-(4-(7-chloropyrazolo [1,5-a]pyridin-2-yl)-6,7-dihydro-1H-imidazo[4,5-c]pyridin-5(4H)-yl)(5-(1-(trifluoromethyl)-1H-pyrazol-3-yl)-1,3,4-oxadiazol-2-yl)methanone]", "AC50": "< 0.5"},
      {"compound": "O=C(c1nnc(-c2ccn(C(F)(F)F)n2)o1)N1CCc2[nH]cnc2[C@@H]1c1cc2cccc(Cl)n2n1", "note": "[Example 1509, (R)-(4-(7-chloropyrazolo [1,5-a]pyridin-2-yl)-6,7-dihydro-1H-imidazo[4,5-c]pyridin-5(4H)-yl)(5-(1-(trifluoromethyl)-1H-pyrazol-3-yl)-1,3,4-oxadiazol-2-yl)methanone]", "AC50": "> 5"},
      {"compound": "Cc1cccc2cc([C@@H]3c4nc[nH]c4CCN3C(=O)c3nnc(-c4ccn(C(F)(F)F)n4)o3)nn12", "note": "[Example 1510, (S)-(4-(7-methylpyrazolo [1,5-a]pyridin-2-yl)-6,7-dihydro-1H-imidazo[4,5-c]pyridin-5(4H)-yl)(5-(1-(trifluoromethyl)-1H-pyrazol-3-yl)-1,3,4-oxadiazol-2-yl)methanone]", "AC50": "0.5 to 1"},
      {"compound": "Cc1cccc2cc([C@H]3c4nc[nH]c4CCN3C(=O)c3nnc(-c4ccn(C(F)(F)F)n4)o3)nn12", "note": "[Example 1511, (R)-(4-(7-methylpyrazolo [1,5-a]pyridin-2-yl)-6,7-dihydro-1H-imidazo[4,5-c]pyridin-5(4H)-yl)(5-(1-(trifluoromethyl)-1H-pyrazol-3-yl)-1,3,4-oxadiazol-2-yl)methanone]", "AC50": "1 to 5"},
      {"compound": "O=C(c1nnc(C2CCC2)o1)N1CCc2[nH]cnc2[C@@H]1c1cc2ccccn2n1", "note": "[Example 1515, (R)-(5-cyclobutyl-1,3,4-oxadiazol-2-yl)(4-(pyrazolo[1,5-a]pyridin-2-yl)-6,7-dihydro-1H-imidazo[4,5-c]pyridin-5(4H)-yl)methanone]", "AC50": "> 5"},
      {"compound": "O=C(c1nnc(C2CCC2)o1)N1CCc2[nH]cnc2[C@H]1c1cc2c(Cl)cccn2n1", "note": "[Example 1517, (S)-(4-(4-chloropyrazolo [1,5-a]pyridin-2-yl)-6,7-dihydro-1H-imidazo[4,5-c]pyridin-5(4H)-yl)(5-cyclobutyl-1,3,4-oxadiazol-2-yl)methanone]", "AC50": "< 0.5"},
      {"compound": "O=C(c1nnc(C2CCC2)o1)N1CCc2[nH]cnc2[C@H]1c1cc2c(C(F)(F)F)cccn2n1", "note": "[Example 1519, (S)-(5-cyclobutyl-1,3,4-oxadiazol-2-yl)(4-(4-(trifluoromethyl)pyrazolo [1,5-a]pyridin-2-yl)-6,7-dihydro-1H-imidazo[4,5-c]pyridin-5(4H)-yl)methanone]", "AC50": "< 0.5"},
      {"compound": "O=C(c1nnc(C2CCC2)o1)N1CCc2[nH]cnc2[C@H]1c1cc2c(C(F)F)cccn2n1", "note": "[Example 1520, (S)-(5-cyclobutyl-1,3,4-oxadiazol-2-yl)(4-(4-(difluoromethyl)pyrazolo [1,5-a]pyridin-2-yl)-6,7-dihydro-1H-imidazo[4,5-c]pyridin-5(4H)-yl)methanone]", "AC50": "< 0.5"},
      {"compound": "Cn1nccc1-c1nnc(C(=O)N2CCc3[nH]cnc3[C@H]2c2cc3cccc(F)n3n2)o1", "note": "[Example 1526, (S)-(4-(7-fluoropyrazolo[1,5-a]pyridin-2-yl)-6,7-dihydro-1H-imidazo[4,5-c]pyridin-5(4H)-yl)(5-(1-methyl-1H-pyrazol-5-yl)-1,3,4-oxadiazol-2-yl)methanone]", "AC50": "0.5 to 1"},
      {"compound": "Cc1cnn(C)c1-c1nnc(C(=O)N2CCc3[nH]cnc3[C@@H]2c2cc3cccc(F)n3n2)o1", "note": "[Example 1529, (R)-(5-(1,4-dimethyl-1H-pyrazol-5-yl)-1,3,4-oxadiazol-2-yl)(4-(7-fluoropyrazolo [1,5-a]pyridin-2-yl)-6,7-dihydro-1H-imidazo[4,5-c]pyridin-5(4H)-yl)methanone]", "AC50": "1 to 5"},
      {"compound": "Cn1nccc1-c1nnc(C(=O)N2CCc3[nH]cnc3[C@@H]2c2cc3c(C(F)F)cccn3n2)o1", "note": "[Example 1533, (R)-(4-(4-(difluoromethyl)pyrazolo[1,5-a]pyridin-2-yl)-6,7-dihydro-1H-imidazo [4,5-c]pyridin-5(4H)-yl)(5-(1-methyl-1H-pyrazol-5-yl)-1,3,4-oxadiazol-2-yl)methanone]", "AC50": "> 5"},
      {"compound": "O=C(c1nnc(-c2cnccn2)o1)N1CCc2[nH]cnc2[C@H]1c1cc2cccc(C(F)F)n2n1", "note": "[Example 1535, (S)-(4-(7-(difluoromethyl)pyrazolo[1,5-a]pyridin-2-yl)-6,7-dihydro-1H-imidazo[4,5-c]pyridin-5(4H)-yl)(5-(pyrazin-2-yl)-1,3,4-oxadiazol-2-yl)methanone]", "AC50": "0.5 to 1"},
      {"compound": "Cc1cc(-c2nnc(C(=O)N3CCc4[nH]cnc4[C@@H]3c3cc4cccc(C(F)F)n4n3)o2)nn1C", "note": "[Example 1536, (R)-(4-(7-(difluoromethyl)pyrazolo[1,5-a]pyridin-2-yl)-6,7-dihydro-1H-imidazo[4,5-c]pyridin-5(4H)-yl)(5-(1,5-dimethyl-1H-pyrazol-3-yl)-1,3,4-oxadiazol-2-yl)methanone]", "AC50": "> 5"},
      {"compound": "O=C(c1nnc(-c2cnn(C(F)(F)F)c2)o1)N1CCc2[nH]cnc2[C@@H]1c1cc2c(C(F)(F)F)cccn2n1", "note": "[Example 1539, (R)-(5-(1-(trifluoromethyl)-1H-pyrazol-4-yl)-1,3,4-oxadiazol-2-yl)(4-(4-(trifluoromethyl)pyrazolo[1,5-a]pyridin-2-yl)-6,7-dihydro-1H-imidazo[4,5-c]pyridin-5(4H)-yl)methanone]", "AC50": "> 5"},
      {"compound": "O=C(c1nnc(-c2cnn(C(F)(F)F)c2)o1)N1CCc2[nH]cnc2[C@@H]1c1cc2c(F)cccn2n1", "note": "[Example 1541, (R)-(4-(4-fluoropyrazolo [1,5-a]pyridin-2-yl)-6,7-dihydro-1H-imidazo[4,5-c]pyridin-5(4H)-yl)(5-(1-(trifluoromethyl)-1H-pyrazol-4-yl)-1,3,4-oxadiazol-2-yl)methanone]", "AC50": "1 to 5"},
      {"compound": "O=C(c1cnn2cc(-c3ccccn3)ccc12)N1CCc2[nH]cnc2[C@H]1c1cc2c(C(F)(F)F)cccn2n1", "note": "[Example 1550, (S)-(6-(pyridin-2-yl)pyrazolo [1,5-a]pyridin-3-yl)(4-(4-(trifluoromethyl)pyrazolo [1,5-a]pyridin-2-yl)-6,7-dihydro-1H-imidazo[4,5-c]pyridin-5(4H)-yl)methanone]", "AC50": "< 0.5"},
      {"compound": "Cn1cc(-c2ccc3c(C(=O)N4CCc5[nH]cnc5[C@H]4c4cc5c(C(F)(F)F)cccn5n4)cnn3c2)cn1", "note": "[Example 1552, (S)-(6-(1-methyl-1H-pyrazol-4-yl)pyrazolo[1,5-a]pyridin-3-yl)(4-(4-(trifluoromethyl)pyrazolo[1,5-a]pyridin-2-yl)-6,7-dihydro-1H-imidazo[4,5-c]pyridin-5(4H)-yl)methanone]", "AC50": "< 0.5"},
      {"compound": "CC(C)c1nnc(C(=O)N2CCc3[nH]cnc3[C@@H]2c2cc3cccc(F)n3n2)o1", "note": "[Example 1554]", "AC50": "> 5"},
      {"compound": "O=C(c1nnc(C2CCC2)o1)N1CCc2[nH]cnc2[C@@H]1c1cc2c(F)cccn2n1", "note": "[Example 1558, (R)-(5-cyclobutyl-1,3,4-oxadiazol-2-yl)(4-(4-fluoropyrazolo[1,5-a]pyridin-2-yl)-6,7-dihydro-1H-imidazo[4,5-c]pyridin-5(4H)-yl)methanone]", "AC50": "1 to 5"},
      {"compound": "Cc1cc(-c2nnc(C(=O)N3CCc4[nH]cnc4[C@H]3c3cc4cccc(F)n4n3)o2)nn1C", "note": "[Example 1565, (S)-(5-(1,5-dimethyl-1H-pyrazol-3-yl)-1,3,4-oxadiazol-2-yl)(4-(7-fluoropyrazolo[1,5-a]pyridin-2-yl)-6,7-dihydro-1H-imidazo[4,5-c]pyridin-5(4H)-yl)methanone]", "AC50": "< 0.5"},
      {"compound": "Cc1cnn(C)c1-c1nnc(C(=O)N2CCc3[nH]cnc3[C@H]2c2cc3c(C(F)F)cccn3n2)o1", "note": "[Example 1568, (S)-(4-(4-(difluoromethyl)pyrazolo[1,5-a]pyridin-2-yl)-6,7-dihydro-1H-imidazo [4,5-c]pyridin-5(4H)-yl)(5-(1,4-dimethyl-1H-pyrazol-5-yl)-1,3,4-oxadiazol-2-yl)methanone]", "AC50": "< 0.5"},
      {"compound": "c1ccc2oc(N3CCc4[nH]cnc4[C@H]3c3cc4ccccn4n3)nc2c1", "note": "[Example 1577, (S)-2-(4-(pyrazolo[1,5-a]pyridin-2-yl)-6,7-dihydro-1H-imidazo[4,5-c]pyridin-5(4H)-yl)benzo[d]oxazole]", "AC50": "0.5 to 1"},
      {"compound": "O=C(c1nnc(C2CC(F)(F)C2)o1)N1CCc2[nH]cnc2[C@@H]1c1cc2c(Cl)cccn2n1", "note": "[Example 1586, (R)-(4-(4-chloropyrazolo [1,5-a]pyridin-2-yl)-6,7-dihydro-1H-imidazo [4,5-c]pyridin-5(4H)-yl)(5-(3,3-difluorocyclobutyl)-1,3,4-oxadiazol-2-yl)methanone]", "AC50": "1 to 5"},
      {"compound": "O=C(c1nnc(C2CC(F)(F)C2)o1)N1CCc2[nH]cnc2[C@H]1c1cc2c(Cl)cccn2n1", "note": "[Example 1587, (S)-(4-(4-chloropyrazolo [1,5-a]pyridin-2-yl)-6,7-dihydro-1H-imidazo[4,5-c]pyridin-5(4H)-yl)(5-(3,3-difluorocyclobutyl)-1,3,4-oxadiazol-2-yl)methanone]", "AC50": "< 0.5"}
    ]}
  ]
}
